Starred links: 1 amine or outer side, 2 acyl side, 3 side chain; linkers in the order of their positions; H or OH if unused. Non-standard residues stand in square brackets, D forms with d. Residues, ends and D or L forms follow the SMILES beside them. dPhe(4-Cl) = N[C@H](Cc1ccc(Cl)cc1)C(=O)O; X3 = C[S+](C)CC[C@@H](N[*:1])C(=O)[*:2]; X4 = C[S+](C)CC[C@H](N[*:1])C(=O)[*:2]; d2Nal = N[C@H](Cc1ccc2ccccc2c1)C(=O)O
Test system: ovulation in female rats
Experiment: Anti-ovulatory activity (AOA) in vivo assay in rats
Design: species or system rat
Conditions: dose 1 μg per rat
Description: As used herein, “LHRH antagonist peptide” is intended to include peptides and peptide analogs which inhibit LHRH activity (i.e., has “LHRH antagonist activity”) in vivo or in vitro. Candidate LHRH antagonist peptides can be assayed, for example, in the animal model described in Corbin and Beattie, Endocrine Res. Commun. 2:1 (1975) (and see infra). In this assay, the LHRH antagonistic activity of a candidate compound is assayed by measuring the antiovulatory activity (AOA) of the compound in rats.
Anti-ovulatory activity (AOA) was measured by an in vivo assay in rats, as described in Corbin and Beattie, Endocrine Res. Commun. 2:1 (1975). In brief, female rats are injected with a candidate LHRH antagonist on the day of proestrus; in general, the candidate LHRH antagonist was dissolved in 0.1% DMSO. The ability of the candidate peptide to inhibit ovulation is measured by determining the number of rats which ovulate. A candidate peptide is considered to have LHRH antagonist qualities if it inhibits ovulation in at least 50% of the treated rats at a dose of 5 μg per rat. Preferred LHRH antagonists inhibit ovulation in at least 50% of rats at a dose of 2 μg per rat, more preferably at a dose of […], and still more preferably at a dose of 0.5 μg per rat.

Molecule	AO activity (AOA): rats which ovulate / rats treated
Ac-D-Nal^1, 4-Cl-D-Phe^2, D-Pal^3, D-Lys(ONic)^6, Lys(iPr)^8, D-Ala^10-LHRH.TFA [Compound 3507]	1/8@μg
Ac-D-Nal^1, 4-Cl-D-Phe^2, D-Pal(N—O)^3, D-Pal(iPr)^6, Lys(iPr)^8, D-Ala^10-LHRH.2TFA [Compound 3882]	6/8@1.0
Ac-D-Nal^1, 4-Cl-D-Phe^2, D-Phe^2, D-Pal^3, Ala^5, D-Pal(iPr)^6, Lys(iPr)^8, D-Ala^10-LHRH.2TFA [Compound 3756]	6/8@1.0
Ac-D-Qal^1, 4-Cl-D-Phe^2, D-Pal^3, D-Lys(Onic)^6, Lys(iPr)^8, D-Ala^10-LHRH.TFA [Compound 3801]	8/8@1.0
Ac-D-Nal^1, 4-Cl-D-Phe^2, D-Pal^3, D-Lys(iPr)^5, D-Lys(TFAc)^6, Lys(iPr)^8, D-Ala^10-LHRH.2TFA [Compound 3753]	7/8@1.0
Ac-D-Pal^1, 4-Cl-D-Phe^2, D-Pal^3, D-Pal(iPr)^6, Lys(iPr)^8, D-Ala^10-LHRH.2TFA [Compound 3804]	8/8@1.0
Ac-D-Nal^1, 4-Cl-D-Phe^2, D-Pal^3, D-Orn(COCH2S^+Me2)^6, D-Ala^10-LHRH.2TFA [Compound 4013]	0/8@1.00
Ac-D-Nal^1, C^αMe-4Cl-Phe^2, D-Pal^3, N^αMe-Tyr^5, D-Pal(iPr)^6, Lys(iPr)^8, D-Ala^10-LHRH.TFA [Compound 3541]	1/8@1 μg
Ac-D-Nal^1, 4-Cl-D-Phe^2, D-Pal^3, N-Me-Tyr^5, D-Lys(Ac)^6, Lys(iPr)^8, D-Ala^10-LHRH.TFA [Compound 3829]	8/8@1.0
Ac-D-Nal^1, 4-Cl-D-Phe^2, D-Pal^3, D-Gln(iPr)^6, Lys(iPr)^8, D-Ala^10-LHRH.2TFA [Compound 3545]	7/8@1 μg
Ac-D-Nal^1, 4-Cl-D-Phe^2, D-Pal^3, D-Lys(AcGly)^6, Lys(iPr)^8, D-Ala^10-LHRH.TFA [Compound 3759]	5/8@1.0
Ac-D-Qal^1, 4-Cl-D-Phe^2, D-Pal^3, D-Lys(pGlu)^6, Lys(iPr)^8, D-Ala^10-LHRH.TFA [Compound 3723]	7/8@1.0
Ac-D-Qal^1, 4-Cl-D-Phe^2, D-Pal^3, D-Lys(Ac)^6, Lys(iPr)^8, D-Ala^10-LHRH.TFA [Compound 3740]	6/8@1.0
Ac-D-Nal^1, 4-Cl-D-Phe^2, D-Trp^3, D-Met^6, D-Ala^10-LHRH.TFA [Compound 3881]	7/8@1.0
Ac-D-Nal^1, 4-Cl-D-Phe^2, D-Pal^3, D-Glu(Mop)^6, Lys(iPr)^8, D-Ala^10-LHRH.2TFA [Compound 3549]	6/8@1 μg
Ac-D-Nal^1, 4-Cl-D-Phe^2, D-Pal^3, D-Lys(Ala)^6, Lys(iPr)^8, D-Ala^10-LHRH.TFA [Compound 3771]	7/8@1.0
Ac-D-Nal^1, 4-Cl-D-Phe^2, D-Trp^3, D-Arg^6, Met^8, D-Ala^10-LHRH.TFA [Compound 3880]	8/8@1.0
Ac-D-Nal^1,4-Cl-D-Phe^2,D-Pal^3,D-Lys(COCH2S^+Me2)^6, D-Ala^10-LHRH.2TFA [Compound 4014]	0/8@1.00

Molecule	AO activity (AOA): rats which ovulate / rats treated
Ac-D-Nal^1, 4-Cl-D-Phe^2, D-Pal^3, D-Arg^6, Lys(COCH2S^+Me2)^8, D-Ala^10-LHRH.2TFA [Compound 4015]	1/8@1.00
Ac-Sar^1, 4-Cl-D-Phe^2, L-1-Nal^3, D-Pal(iPr)^6, Lys(iPr)^8, D-Ala^10-LHRH.2TFA [Compound 3773]	7/8@1.0
Ac-D-Nal^1, 4-Cl-D-Phe^2, D-Pal^3, Lys^5, D-Pal(iPr)^6, Lys(iPr)^8, D-Ala^10-LHRH.4TFA [Compound 3548]	6/8@1 μg
Ac-D-Nal^1, 4-Cl-D-Phe^2, D-Pal^3, D-Lys(2-pyrimidylthio)acetic)^6, Lys(iPr)^8, D-Ala^10-LHRH.TFA [Compound 3960]	5/8@1.00
Ac-D-Nal^1, 4-Cl-D-Phe^2, D-Pal^3, Lys(iPr)^5, D-Trp^6, Trp^7,Orn^8, D-Ala^10-LHRH.TFA [Compound 3855]	4/8@1.0
Ac-D-Nal^1, 4-Cl-D-Phe^2, D-Pal^3, D-Lys(3-Δ-Pro)^6, Lys(iPr)^8, D-Ala^10-LHRH-TFA [Compound 3721]	4/8@1.0
Ac-D-Nal^1, 4-Cl-D-Phe^2, D-Pal^3, D-Pal(1-Bu)^6, Lys(iPr)^8, D-Ala^10-LHRH.TFA [Compound 3428]	1/8@1 μg
Ac-D-Nal^1, 4-Cl-D-Phe^2, D-Pal^3, D-Lys(Hippic)^6, Lys(iPr)^8, D-Ala^10-LHRH.TFA [Compound 3758]	5/8@1.0
Ac-D-Nal^1, 4-Cl-D-Phe^2, D-Pal^3, Lys(Nic)^5, D-Pal(Bzl)^6, Lys(iPr)^8, D-Ala^10-LHRH.3TFA [Compound 3547]	6/8@1 μg
Ac-D-Nal^1, 4-Cl-D-Phe^2, D-Pal^3, D-Lys^6, Lys(iPr)^8, D-Ala^10-LHRH.TFA [Compound 3505]	5/8@1 μg
Ac-D-Nal^1, 4-Cl-D-Phe^2, D-Pal^3, Lys(Otac)^5, D-Lys(Otac)^6, Lys(iPr)^8, D-Ala^10-LHRH.TFA [Compound 3502]	6/8@1 μg
Ac-D-Nal^1, 4-Cl-D-Phe^2, D-Pal^3, D-Pal(N—O)^6, Lys(iPr)^8, D-Ala^10-LHRH.TFA [Compound 3786]	4/8@1.0
Ac-D-Nal^1, 4-Cl-D-Phe^2, D-Pal^3, D-Lys(iPrNic)^5, D-Lys(iPrNic)^6, Lys(iPr)^8, D-Ala^10-LHRH.TFA [Compound 3553]	8/8@1 μg
Ac-D-Nal^1, 4-Cl-D-Phe^2, D-Pal^3, Lys(ClNic)^5, D-Lys(ClNic)^6, Lys(iPr)^8, D-Ala^10-LHRH.2TFA [Compound 3544]	6/8@1 μg
Ac-D-Nal^1, 4-Cl-D-Phe^2, D-Pal^3,D-Lys(Mts)^6, Lys(iPr)^8, D-Ala^10-LHRH.TFA [Compound 3761]	7/8@1.0
Ac-D-Qal^1, 4-Cl-D-Phe^2, D-Pal^3, D-Lys(Dodac)^6, Lys(iPr)^8, D-Ala^10-LHRH.TFA [Compound 3742]	6/8@1.0
Ac-D-Nal^1, 4-Cl-D-Phe^2, D-Pal^3, Lys(TFAc)^6, Lys(iPr)^8, D-Ala^10-LHRH.2TFA [Compound 3546]	6/8@1 μg
Ac-D-Nal^1, 4-Cl-D-Phe^2, D-Pal^3, His^5D-Pal(iPr)^6, Lys(iPr)^8, D-Ala^10-LHRH.2TFA [Compound 3754]	5/8@1.0

Same assay, conditions: dose 5 μg per rat

Molecule	AO activity (AOA): rats which ovulate / rats treated
Ac-D-Nal-4-Cl-D-Phe^2, D-Pal^3, D-Lys(Ac-D-Nal^1 , 4-Cl-D-Phe^2, D-Pal^3, Ser)^6, Lys(iPr)^8, D-Ala^10-LHRH.TFA [Compound 3722]	8/8@5.0
Ac-D-Nal^1, 4-Cl-D-Phe^2, D-Pal^3, Arg^5, D-His^6, Trp^7, Orn^8, D-Ala^10-LHRH.TFA [Compound 3854]	6/8@5.0
Ac-D-Nal^1, 4-Cl-D-Phe^2, D-Pal^3, His^5, D-Arg^6, Trp^7, Orn^8, D-Ala^10-LHRH.TFA [Compound 3853]	0/8@5.0
Ac-D-Nal^1, 4-Cl-D-Phe^2, D-Pal^3, Lys(iPr)^5, D-His^6, Trp^7, Orn^8, D-Ala^10-LHRH.TFA [Compound 3852]	8/8@5.0

Same assay, conditions: dose 50 μg per rat

Molecule	AO activity (AOA): rats which ovulate / rats treated
Met(S^+Me)^8-LHRH.TFA [Compound 3941]	8/8@50.0

Same assay, conditions: rat, in vivo

Molecule	AO activity (AOA), in words
Ac-D-Nal^1, 4-Cl-D-Phe^2, D-Pal^3, D-Lys(ONic)^6, Lys(iPr)^8, D-Ala^10-LHRH.TFA [Compound 3507]	high AOA

Test system: rat mast cells
Experiment: Histamine release assay, rat mast cells
Conditions: not given
Description: The term “histamine-releasing activity”, as used herein, refers to the tendency of a compound to release histamine when administered to a subject. The histamine-releasing activity of a compound can be measured with an in vitro assay (described in more detail, infra). […] Histamine-releasing activity was assayed by the method described in U.S. Pat. No. 4,851,385 to Roeske. Briefly, a suspension of rat mast cells was added to increasing concentrations of an LHRH antagonist peptide and incubated for 15 minutes at 37° C. The buffer contained 25 mM PIPES, pH 7.4, NaCl (119 mM), KCl (5 mM), NaOH (40 mM) glucose (5.6 mM), CaCl2 (1 mM) and 0.1% bovine serum albumin.

Histamine-releasing activity, in words	Molecule
low histamine release	CC(=O)N[C@H](Cc1ccc2ccccc2c1)C(=O)N[C@H](Cc1ccc(Cl)cc1)C(=O)N[C@H](Cc1c[nH]c2ccccc12)C(=O)N[C@@H](CO)C(=O)N[C@@H](Cc1ccc(O)cc1)C(=O)N[C@H](CC[S+](C)C)C(=O)N[C@@H](CC(C)C)C(=O)N[C@@H](CC[S+](C)C)C(=O)N1CCC[C@H]1C(=O)N[C@H](C)C(N)=O [Compound 3925, Ac-D-Nal^1,4-Cl-D-Phe^2, D-Trp^3, D-Met(S^+Me)^6, Met(S^+Me)^8, D-Ala^10-LHRH.2TFA] (Ac-[d2Nal][dPhe(4-Cl)][dW]SY[X3]L[X4]P[dA]-NH2)

Source: patent publication US7071165B2, “LHRH antagonist peptides” (Indiana University Research and Technology Corporation, priority 1995, dated 2006)
